The record followed here is ChEMBL document CHEMBL1147569, “Synthesis and structure-activity relationships of (R)-1-alkyl-3-[2-(2-amino)phenethyl]-5-(2-fluorophenyl)-6-methyluracils as human GnRH receptor antagonists” (Bioorg Med Chem Lett, 2004).

Experiment [1] concerns the target T1, Gonadotropin-releasing hormone receptor (Homo sapiens, UniProt P30968).
T1 sequence (P30968 whole entry): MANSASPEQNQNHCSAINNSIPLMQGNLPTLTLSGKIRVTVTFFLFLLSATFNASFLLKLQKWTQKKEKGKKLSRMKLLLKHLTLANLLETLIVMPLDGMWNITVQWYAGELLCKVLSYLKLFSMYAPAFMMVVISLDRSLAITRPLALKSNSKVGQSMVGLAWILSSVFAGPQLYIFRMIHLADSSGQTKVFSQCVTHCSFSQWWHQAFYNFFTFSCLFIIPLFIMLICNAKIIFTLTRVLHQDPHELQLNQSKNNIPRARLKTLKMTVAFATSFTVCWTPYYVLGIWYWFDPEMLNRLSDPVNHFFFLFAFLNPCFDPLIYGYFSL
In words: Binding affinity towards human gonadotropin-releasing hormone receptor expressed in HEK293 cells using des-Gly10-[125I]Tyr,5 DLeu,6 NMeLeu,7 Pro9-NEt GnRH as radioligand. The experiment is classed as cell-based.

Experiment [2] relates to HEK293. As to the kind of experiment: Inhibitory activity against GnRH (5 nM) stimulated [Ca2+] release in transfected cells. The settings on record: Homo sapiens. In kind it is functional, cell-based.

Bounds are passed on as bounds.

Take `Cc1c(-c2ccccc2F)c(=O)n(C[C@H](N)c2ccccc2)c(=O)n1CCO`: the Ki (as a rule, a dissociation constant, usually derived from enzyme kinetics or from competition with a known ligand) in experiment [1] was > 10000 nM. Compound `CCCCCn1c(C)c(-c2ccccc2F)c(=O)n(C[C@H](N)c2ccccc2)c1=O` showed a Ki in experiment [1] of 230 nM. Same read-out and setting: the figure for `Cc1c(-c2ccccc2F)c(=O)n(C[C@H](N)c2ccccc2)c(=O)n1Cc1ccccc1C(F)(F)F` is 4 nM; for `Cc1c(-c2ccccc2F)c(=O)n(C[C@H](N)c2ccccc2)c(=O)n1CCc1ccccn1` it is > 10000 nM. Compound `Cc1c(-c2ccccc2F)c(=O)n(C[C@H](N)c2ccccc2)c(=O)n1C1CCCCC1` yielded a Ki in experiment [1] of 260 nM. Still for that read-out and setting: the figure for `Cc1c(-c2ccccc2F)c(=O)n(C[C@H](N)c2ccccc2)c(=O)n1Cc1cccc(F)c1` is 67 nM; for `Cc1c(-c2ccccc2F)c(=O)n(C[C@H](N)c2ccccc2)c(=O)n1Cc1ccccn1` it is 77 nM; for `Cc1c(-c2ccccc2F)c(=O)n(C[C@H](N)c2ccccc2)c(=O)n1Cc1c(F)cccc1F` it is 6 nM. On to `Cc1c(-c2ccccc2F)c(=O)n(C[C@H](N)c2ccccc2)c(=O)n1CCN1CCNCC1`, for which the Ki in experiment [1] was > 10000 nM. The same measure, in the same setting: the figure for `COc1ccccc1Cn1c(C)c(-c2ccccc2F)c(=O)n(C[C@H](N)c2ccccc2)c1=O` is 230 nM; for `Cc1c(-c2ccccc2F)c(=O)n(C[C@H](N)c2ccccc2)c(=O)n1C(C)c1ccccc1` (some centres not stated) it is 140 nM. In experiment [1], `Cc1c(-c2ccccc2F)c(=O)n(C[C@H](N)c2ccccc2)c(=O)n1Cc1ccccc1` registered a Ki of 57 nM.

As for `Cc1c(-c2ccccc2F)c(=O)n(C[C@H](N)c2ccccc2)c(=O)n1Cc1cccnc1`, in experiment [1], the Ki came to 700 nM. The same measure, in the same setting: with `Cc1c(-c2ccccc2F)c(=O)n(C[C@H](N)c2ccccc2)c(=O)n1CC1CCCCC1` the figure was 200 nM. In the case of `Cc1c(-c2ccccc2F)c(=O)n(C[C@H](N)c2ccccc2)c(=O)n1CCc1ccccc1`, in experiment [1], the affinity, expressed as Ki, was 1000 nM. On the same count and under the same terms, with `Cc1ccc(Cn2c(C)c(-c3ccccc3F)c(=O)n(C[C@H](N)c3ccccc3)c2=O)o1` the figure was 430 nM; with `COCCn1c(C)c(-c2ccccc2F)c(=O)n(C[C@H](N)c2ccccc2)c1=O`, 1700 nM; with `Cc1c(-c2ccccc2F)c(=O)n(C[C@H](N)c2ccccc2)c(=O)n1CC1CC1`, 1100 nM.

As for `Cc1c(-c2ccccc2F)c(=O)n(C[C@H](N)c2ccccc2)c(=O)n1Cc1ccccc1F`, the Ki in experiment [1] came to 20 nM. On the same count and under the same terms, with `Cc1c(-c2ccccc2F)c(=O)n(C[C@H](N)c2ccccc2)c(=O)n1CCN(C)C` the figure was > 10000 nM. On the same count and under the same terms, with `Cc1c(-c2ccccc2F)c(=O)n(C[C@H](N)c2ccccc2)c(=O)n1Cc1ccccc1Cl` the figure was 27 nM; with `Cc1c(-c2ccccc2F)c(=O)n(C[C@H](N)c2ccccc2)c(=O)n1CC(C)C`, 500 nM.

Regarding `Cc1c(-c2ccccc2F)c(=O)n(C[C@H](N)c2ccccc2)c(=O)n1Cc1c(F)cccc1Cl`, affinity in experiment [1] was put at a Ki of 0.7 nM. In addition, the IC50 (as a rule, the concentration that inhibits the measured activity by half) in experiment [2] stood at 2.8 nM. In experiment [1], `Cc1c(-c2ccccc2F)c(=O)n(C[C@H](N)c2ccccc2)c(=O)n1Cc1ccc(F)cc1Cl` showed a Ki of 33 nM. Still for that read-out and setting: the figure for `Cc1ccccc1Cn1c(C)c(-c2ccccc2F)c(=O)n(C[C@H](N)c2ccccc2)c1=O` is 35 nM; for `Cc1c(-c2ccccc2F)c(=O)n(C[C@H](N)c2ccccc2)c(=O)n1Cc1ccc(F)cc1` it is 75 nM.
